In ChEMBL document CHEMBL5634090, “Design of phenothiazine-based cationic amphiphilic derivatives incorporating arginine residues: Potential membrane-active broad-spectrum antimicrobials combating pathogenic bacteria in vitro and in vivo” (Eur J Med Chem, 2023):
In brackets after ≈: the same amount, converted by molar mass. Several values for one entry are separate records, joined by “and”; a condition that tells them apart may be missing. Equal values may be shown once. Activity calls are given as the source filed them. The rule behind the calls is not given here.

How the values were obtained:
Klebsiella pneumoniae [1] = assay: Antibacterial activity against Klebsiella pneumoniae ATCC 10031 assessed as reduction in bacterial load at 8 times MIC measured after 2 hrs by time kill assay relative to control; format: functional; design: scale not given: the % may be the effect or the level left
Pseudomonas aeruginosa [2] = assay: Antibacterial activity against Pseudomonas aeruginosa ATCC 9027 in presence of 19 umol/L Fe2+ by broth microdilution method; format: functional
Staphylococcus aureus [3] = assay: Antibacterial activity against Staphylococcus aureus ATCC 29213 in presence of 4.5 mmol/L K+ by broth microdilution method; format: functional
Klebsiella pneumoniae [4] = assay: Inhibition of biofilm formation in Klebsiella pneumoniae ATCC 10031 at 3.125 ug/ml by crystal violet staining assay relative to control; format: functional
Pseudomonas aeruginosa [5] = assay: Antibacterial activity against Pseudomonas aeruginosa ATCC 9027 in presence of 140 mmol/L Na+ by broth microdilution method; format: functional
Escherichia coli [6] = assay: Antibacterial activity against Escherichia coli ATCC 25922 in presence of 20 umol/L Fe3+ by broth microdilution method; format: functional
[7] = Cytotoxicity against HEK293 cells assessed as cell survival rate at 6.25 ug/ml by CCK-8 assay relative to control; format: toxicity, cell-based; details: human, at 6.25 µg/mL, read-out: Activity
[8] = Selectivity index, ratio of CC50 for cytotoxicity against mouse NCTC clone 929 cells to MIC for antibacterial activity against Pseudomonas aeruginosa ATCC 9027; format: toxicity, cell-based; details: read-out: Selectivity Index
Staphylococcus aureus [9] = assay: Antibiofilm activity against 24 hrs preformed biofilm in Staphylococcus aureus ATCC 29213 assessed as reduction in biofilm viability at 0.39 ug/ml relative to control; format: functional; details: dose 0.39 µg/ml
Klebsiella pneumoniae [10] = assay: Inhibition of biofilm formation in Klebsiella pneumoniae ATCC 10031 at 0.78 ug/ml by crystal violet staining assay relative to control; format: functional
[11] = Selectivity index, ratio of CC50 for cytotoxicity against HEK293 cells to MIC for antibacterial activity against methicillin resistant Staphylococcus aureus N315; format: toxicity, cell-based; details: human, read-out: Selectivity Index
Klebsiella pneumoniae [12] = assay: Inhibition of biofilm formation in Klebsiella pneumoniae ATCC 10031 at 12.5 ug/ml by crystal violet staining assay relative to control; format: functional
[13] = Selectivity index, ratio of CC50 for cytotoxicity against mouse NCTC clone 929 cells to MIC for antibacterial activity against Escherichia coli ATCC 25922; format: toxicity, cell-based; details: read-out: Selectivity Index
Klebsiella pneumoniae [14] = assay: Inhibition of biofilm formation in Klebsiella pneumoniae ATCC 10031 at 25 ug/ml by crystal violet staining assay relative to control; format: functional
Staphylococcus aureus [15] = assay: Inhibition of biofilm formation in Staphylococcus aureus ATCC 29213 at 12.5 ug/ml by crystal violet staining assay relative to control; format: functional
Staphylococcus aureus [16] = assay: Antibacterial activity against Staphylococcus aureus ATCC 29213 in presence of 20 umol/L Fe3+ by broth microdilution method; format: functional
[17] = Selectivity index, ratio of CC50 for cytotoxicity against mouse NCTC clone 929 cells to MIC for antibacterial activity against methicillin resistant Staphylococcus aureus NCTC 10442; format: toxicity, cell-based; details: read-out: Selectivity Index
Staphylococcus aureus [18] = assay: Antibacterial activity against methicillin resistant Staphylococcus aureus N315 by microbroth dilution assay; format: functional
Staphylococcus aureus [19] = assay: Inhibition of biofilm formation in Staphylococcus aureus ATCC 29213 at 3.125 ug/ml by crystal violet staining assay relative to control; format: functional
[20] = Selectivity index, ratio of CC50 for cytotoxicity against HEK293 cells to MIC for antibacterial activity against Escherichia coli ATCC 25922; format: toxicity, cell-based; details: human, read-out: Selectivity Index
Staphylococcus aureus [21] = assay: Antibacterial activity against Staphylococcus aureus ATCC 29213 assessed as log reduction in bacterial load at 4 times MIC measured after 2 hrs by time kill assay; format: functional
Staphylococcus aureus [22] = assay: Antibacterial activity against methicillin resistant Staphylococcus aureus NCTC 10442 in presence of 19 umol/L Zn2+ by broth microdilution method; format: functional
Pseudomonas aeruginosa [23] = assay: Antibacterial activity against Pseudomonas aeruginosa ATCC 9027 by microbroth dilution assay; format: functional
Klebsiella pneumoniae [24] = assay: Antibacterial activity against Klebsiella pneumoniae ATCC 14581 in presence of 140 mmol/L Na+ by broth microdilution method; format: functional
[25] = Selectivity index, ratio of CC50 for cytotoxicity against HEK293 cells to MIC for antibacterial activity against Klebsiella pneumoniae ATCC 10031; format: toxicity, cell-based; details: human, read-out: Selectivity Index
[26] = Cytotoxicity against mouse NCTC clone 929 cells assessed as cell survival rate at 6.25 ug/ml by CCK-8 assay relative to control; format: toxicity, cell-based; details: NCTC clone 929 (L929) cells, at 6.25 µg/mL, read-out: Activity
Staphylococcus aureus [27] = assay: Antibacterial activity against methicillin resistant Staphylococcus aureus N315 in presence of 1 mmol/L Mg2+ by broth microdilution method; format: functional
[28] = Cytotoxicity against mouse NCTC clone 929 cells assessed as cell survival rate at 50 ug/ml by CCK-8 assay relative to control; format: toxicity, cell-based; details: NCTC clone 929 (L929) cells, at 50 µg/mL, read-out: Activity
[29] = Hemolytic activity in rabbit erythrocytes; format: toxicity, cell-based, Oryctolagus cuniculus, Erythrocyte
Staphylococcus aureus [30] = assay: Inhibition of biofilm formation in Staphylococcus aureus ATCC 29213 at 0.39 ug/ml by crystal violet staining assay relative to control; format: functional
Klebsiella pneumoniae [31] = assay: Antibacterial activity against Klebsiella pneumoniae ATCC 10031 assessed as loss in cell viability at 8 times MIC incubated for 4 hrs by LIVE/DEAD BacLight bacterial viability assay; format: functional, organism-based; details: Cell membrane
Escherichia coli [32] = assay: Antibacterial activity against Escherichia coli ATCC 25922 in presence of 20 umol/L Fe2+ by broth microdilution method; format: functional
Klebsiella pneumoniae [33] = assay: Antibacterial activity against Klebsiella pneumoniae ATCC 10031 assessed as log reduction in bacterial load at 8 times MIC measured after 2 hrs by time kill assay; format: functional
Pseudomonas aeruginosa [34] = assay: Antibacterial activity against Pseudomonas aeruginosa ATCC 9027 in presence of 1.00 mmol/L Mg2+ by broth microdilution method; format: functional
[35] = Selectivity index, ratio of CC50 for cytotoxicity against mouse NCTC clone 929 cells to MIC for antibacterial activity against methicillin resistant Staphylococcus aureus N315; format: toxicity, cell-based; details: read-out: Selectivity Index
[36] = Cytotoxicity against HEK293 cells by CCK-8 assay; format: toxicity, cell-based; details: human
Klebsiella pneumoniae [37] = assay: Antibiofilm activity against 24 hrs preformed biofilm in Klebsiella pneumoniae ATCC 10031 assessed as reduction in biofilm viability at […] ug/ml relative to control; format: functional; details: dose […] microg/ml; 1.56 ug/mL
Klebsiella pneumoniae [38] = assay: Antibiofilm activity against 24 hrs preformed biofilm in Klebsiella pneumoniae ATCC 10031 assessed as reduction in biofilm viability at 0.78 ug/ml relative to control; format: functional; details: dose 0.78 µg/ml
Staphylococcus aureus [39] = assay: Antibacterial activity against Staphylococcus aureus ATCC 29213 in presence of 2.5 mmol/L Ca2+ by broth microdilution method; format: functional
Escherichia coli [40] = assay: Antibacterial activity against Escherichia coli ATCC 25922 in presence of 4.5 mmol/L K+ by broth microdilution method; format: functional
Staphylococcus aureus [41] = assay: Antibacterial activity against Staphylococcus aureus ATCC 29213 assessed as loss in membrane integrity at 8 times MIC incubated for 4 hrs by LIVE/DEAD BacLight bacterial viability assay; format: functional, organism-based; details: Cell membrane

With `CCCCCCCN1c2ccccc2Sc2ccc(OCC(=O)N[C@@H](CCCNC(=N)N)C(=O)N[C@@H](CCCNC(=N)N)C(N)=O)cc21` the Activity (Klebsiella pneumoniae [1]) was over 99.9%, the MIC (Pseudomonas aeruginosa [2]) was 6.25 µg/mL and the MIC (Staphylococcus aureus [3]) was 1.56 µg/mL. For the same compound, the inhibition at 3.125 µg/mL (Klebsiella pneumoniae [4]) was 73.8%, the MIC (Pseudomonas aeruginosa [5]) was 6.25 µg/mL and the MIC (Escherichia coli [6]) was 3.12 µg/mL. It also gave a viability at 6.25 ug/ml [7] of 87.7%, a selectivity ratio [8] of 8 and an Activity (Staphylococcus aureus [9]) of 97.35%. For the same compound, the inhibition at 0.78 µg/mL (Klebsiella pneumoniae [10]) was 27.1%, the selectivity ratio [11] was 8 and the inhibition at 12.5 µg/mL (Klebsiella pneumoniae [12]) was 93.9%. It also gave a selectivity ratio [13] of 8, an inhibition at 25 µg/mL (Klebsiella pneumoniae [14]) of 96.6% and an inhibition at 12.5 µg/mL (Staphylococcus aureus [15]) of 96.7%. The MIC (Staphylococcus aureus [16]) was 1.56 µg/mL, the selectivity ratio [17] was 8 and the MIC (Staphylococcus aureus [18]) was 1.56 µg/mL (≈ 2.28 µM). The inhibition at 3.125 µg/mL (Staphylococcus aureus [19]) was 87.2%, the selectivity ratio [20] was 8 and the “log(activity)” value (Staphylococcus aureus [21]) was over 3. For the same compound, the MIC (Staphylococcus aureus [22]) was 1.56 µg/mL, the MIC (Pseudomonas aeruginosa [23]) was 6.25 µg/mL (≈ 9.15 µM) and the MIC (Klebsiella pneumoniae [24]) was 3.12 µg/mL. For the same compound, the selectivity ratio [25] was 8, the viability at 6.25 ug/ml [26] was 91.2% and the MIC (Staphylococcus aureus [27]) was 1.56 µg/mL. It also gave a viability at 50 ug/ml [28] of 68.1%, an HC50 [29] of 281 µg/mL and an inhibition at 0.39 µg/mL (Staphylococcus aureus [30]) of 5.85%. For the same compound, the Activity (Klebsiella pneumoniae [31]) was “Active”, the MIC (Escherichia coli [32]) was 3.12 µg/mL and the “log(activity)” value (Klebsiella pneumoniae [33]) was over 3. The MIC (Pseudomonas aeruginosa [34]) was 6.25 µg/mL, the selectivity ratio [35] was 8 and the CC50 [36] was > 50 µg/mL and 73.3 µM. The Activity (Klebsiella pneumoniae [37]) was 73.4%, the Activity (Klebsiella pneumoniae [38]) was 82.83% and the MIC (Staphylococcus aureus [39]) was 3.12 µg/mL. The MIC (Escherichia coli [40]) was 3.12 µg/mL and the Activity (Staphylococcus aureus [41]) was “Active”.
